The values below come from patent EP1614683B1, “Indazole compounds and pharmaceutical compositions for inhibiting protein kinases, and methods for their use” (priority 1999, dated 2001).

In general, inhibition refers to the relative decrease from the control value, in per cent. The IC50 is the concentration needed to halve the response being measured.

Each structure is given as a SMILES string. Where two headings read alike, the source gives them in different places.

Data set [1] has as its target LCK tyrosine kinase (Homo sapiens, UniProt P06239, C224D/P223M). In words: LCK spectrophotometric assay. It is filed as biochemical. As to conditions: read-out: Lck-P* (% inhibition). As to the method: The spectrophotometric assay was carried out as described above for VEGF-R2, except for the following changes in concentration: LCK = 60 nM, MgCl2 = 0 mM, poly(E4Y1) = 20 mM.

The test system of data set [2] is human umbilical vein endothelial cells (HUVEC). In words: HUVEC proliferation assay (VEGF-stimulated, MTT). In kind it is cell-based. Particulars: Table 1. As to the method: This assay determines the ability of a test compound to inhibit the growth factor-stimulated proliferation of human umbilical vein endothelial cells ("HUVEC"). HUVEC cells (passage 3-4, Clonetics, Corp.) were thawed into EGM2 culture medium (Clonetics Corp) in T75 flasks. Fresh EGM2 medium was added to the flasks 24 hours later. Four or five days later, cells were exposed to another culture medium (F12K medium supplemented with 10% fetal bovine serum (FBS), 60 µg/mL endothelial cell growth supplement (ECGS), and 0.1 mg/mL heparin). Exponentially-growing HUVEC cells were used in experiments thereafter. Ten to twelve thousand HUVEC cells were plated in 96-well dishes in 100 µl of rich, culture medium (described above). The cells were allowed to attach for 24 hours in this medium. The medium was then removed by aspiration and 105 µl of starvation media (F12K+1% FBS) was added to each well. After 24 hours, 15 µl of test agent dissolved in 1% DMSO in starvation medium or this vehicle alone was added into each treatment well; the final DMSO concentration was 0.1%. One hour later, 30 µl of VEGF (30 ng/mL) in starvation media was added to all wells except those containing untreated controls; the final VEGF concentration was 6 ng/mL. Cellular proliferation was quantified 72 hours later by MTT dye reduction, at which time cells were exposed for 4 hours MTT (Promega Corp.).

A short description of data set [3]: in vitro. In kind it is in vitro ADME, human. How it is done: Compound metabolism in human liver microsomes was measured by LC-MS analytical assay procedures as follows. First, human liver microsomes (HLM) were thawed and diluted to 5 mg/mL with cold 100 mM potassium phosphate (KPO4) buffer. Appropriate amounts of KPO4 buffer, NADPH-regenerating solution (containing B-NADP, glucose-6-phosphate, glucose-6-phosphate dehydrogenase, and MgCl2), and HLM were preincubated in 13 x 100 mm glass tubes at 37 C for 10 min. (3 tubes per test compound--triplicate). Test compound (5 µM final) was added to each tube to initiate reaction and was mixed by gentle vortexing, followed by incubation at 37 °C. At t=0, 2 h, a 250-µL sample was removed from each incubation tube to separate 12 x 75 mm glass tubes containing 1 mL ice-cold acetonitrile with 0.05 µM reserpine. […] Supernatant was transferred to new 12 x 75 mm glass tubes and evaporated by Speed-Vac centrifugal vacuum evaporator. Samples were reconstituted in 200 µL 0.1 % formic acid/acetonitrile (90/10) and vortexed vigorously to dissolve. The samples were then transferred to separate polypropylene microcentrifuge tubes and centrifuged at 14000 x g for 10 min. (Fisher Micro 14, S/N M0017580). For each replicate (#1-3) at each timepoint (0 and 2 h), an aliquot sample of each test compound was combined into a single HPLC vial insert (6 total samples) for LC-MS analysis, which is described below.

Data set [4] deals with human FGF-R1 (Homo sapiens, UniProt P11362, C488A/C584S/L457V). The experiment in a line: FGF-R spectrophotometric assay. As to conditions: read-out: FGF-P* (% inhibition). It is filed as biochemical. How it is done:
The spectrophotometric assay was carried out as described above for VEGF-R2, except for the following changes in concentration: FGF-R = 50 nM, ATP = 2 mM, and poly(E4Y1) =15 mM.

Data set [5] concerns the target unphosphorylated VEGF-R2Δ50 (Homo sapiens, UniProt P35968, DEL940-989/E990V). In words: biochemical. Particulars: for inhibition at 0.05 µM: read-out: FLVK ** (% inhibition); for inhibition at 1 µM: read-out: FLVK* (% inhibition).
Setting [6] is: Table 1, compound concentration 1 µM.
The mark [7] stands for this setting: Homo sapiens, HUVEC, + albumin, read-out: HUVEC + albumin IC50.
[8] abbreviates: Homo sapiens, HUVEC, read-out: HUVEC IC50.
Where [9] appears, read: human liver microsomes, 5 µM test compound, 37 °C, 2 h.

Chain of LCK tyrosine kinase (P06239 223-509 P223M/C224D): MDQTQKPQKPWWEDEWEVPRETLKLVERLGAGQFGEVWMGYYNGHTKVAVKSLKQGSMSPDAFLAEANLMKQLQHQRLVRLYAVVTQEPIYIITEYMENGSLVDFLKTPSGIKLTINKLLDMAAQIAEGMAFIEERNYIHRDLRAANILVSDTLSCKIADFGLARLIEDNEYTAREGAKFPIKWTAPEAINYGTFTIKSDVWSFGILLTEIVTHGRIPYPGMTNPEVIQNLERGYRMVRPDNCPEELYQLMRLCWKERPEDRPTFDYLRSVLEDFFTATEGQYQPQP
Chain of unphosphorylated VEGF-R2Δ50 (P35968 with tags, fused parts or gaps DEL940-989/E990V limits assumed): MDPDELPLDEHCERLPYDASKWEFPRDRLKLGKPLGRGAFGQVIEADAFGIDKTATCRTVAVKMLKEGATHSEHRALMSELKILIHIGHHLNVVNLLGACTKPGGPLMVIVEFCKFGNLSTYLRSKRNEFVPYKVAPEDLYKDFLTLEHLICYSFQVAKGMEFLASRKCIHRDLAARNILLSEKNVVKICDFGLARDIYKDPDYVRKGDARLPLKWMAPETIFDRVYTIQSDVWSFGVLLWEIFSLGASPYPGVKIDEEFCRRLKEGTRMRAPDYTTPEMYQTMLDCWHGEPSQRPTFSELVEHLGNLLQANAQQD
Chain of human FGF-R1 (P11362 456-766 L457V/C488A/C584S): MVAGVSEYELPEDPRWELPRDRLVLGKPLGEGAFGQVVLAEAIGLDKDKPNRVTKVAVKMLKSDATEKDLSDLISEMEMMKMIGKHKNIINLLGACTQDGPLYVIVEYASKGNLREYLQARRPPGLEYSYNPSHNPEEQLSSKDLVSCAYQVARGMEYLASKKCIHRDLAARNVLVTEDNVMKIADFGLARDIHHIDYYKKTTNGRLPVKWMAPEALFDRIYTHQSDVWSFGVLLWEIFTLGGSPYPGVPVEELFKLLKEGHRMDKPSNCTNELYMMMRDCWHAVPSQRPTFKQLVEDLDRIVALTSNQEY

With `CN(c1cccc(NC(=O)c2ccccc2)c1)c1ccc2c(/C=C/c3ccccc3)n[nH]c2c1` [12(b), N-{3-[Methyl-(3-styryl-1H-indazol-6-yl)-amino]-phenyl}-benzamide], the inhibition at 1 µM in data set [1] (setting [6]) was 32%. In addition, the values for the half-inhibitory concentration (IC50) in data set [2] (setting [7]) and in data set [2] (setting [8]) were 44 nM and 4.8 nM, respectively. This compound also had a remaining at 2 h, 5 µM in data set [3] (human, microsomes) of 29%.

As to `CN(c1cccc(NC(=O)c2cccc(C(F)(F)F)c2)c1)c1ccc2c(/C=C/c3ccc4c(c3)OCO4)n[nH]c2c1` [16(d), N-(3-{[3-(2-Benzo[1,3]dioxol-5-yl-vinyl)-1H-indazol-6-yl]-methyl-amino}-phenyl)-3-trifluoromethyl-benzamide], the inhibition at 1 µM in data set [4] (setting [6]) amounted to 90%; in data set [1] (setting [6]) it was 33%. Besides, in data set [2] (setting [8]), the 50% inhibitory concentration (IC50) worked out at 11 nM.

Consider `O=C(Nc1cccc(C(=O)c2ccc3c(/C=C/c4ccccc4)n[nH]c3c2)c1)OCc1ccccc1` [19(c), [3-(3-Styryl-1H-indazole-6-carbonyl)-phenyl]-carbamic acid benzyl ester], for which the inhibition at 1 µM in data set [4] (setting [6]) was determined as 68%; in data set [1] (setting [6]), 50%. In addition, the half-inhibitory concentration (IC50) in data set [2] (setting [8]) came out at 17 nM.

On to `O=C(c1cccc(NC(=O)c2cccc(Cl)n2)c1)c1ccc2c(/C=C/c3ccccc3)n[nH]c2c1` [19(m), 6-[3-(6-chloropyridin-2-ylcarboxamido)benzoyl]-3-E-styryl-1H-indazole], for which the results for the inhibition at 1 µM in data set [4] (setting [6]) and in data set [1] (setting [6]) were 23% and 35%, respectively. In data set [2] (setting [7]), the IC50 amounted to 94 nM. For the same compound, in data set [3] (setting [9]), the “% remain (HLM, 2 h)” value came to 61%.

Regarding `O=C(Nc1cccc(C(=O)c2ccc3c(/C=C/c4ccccc4)n[nH]c3c2)c1)c1ccnc(Cl)c1` [19(o), 6-[3-(2-chloropyridin-4-ylcarboxamido)benzoyl]-3-E-styryl-1H-indazole], the inhibition at 0.05 µM in data set [5] worked out at 89%.

For `O=C(Nc1cccc(Sc2ccc3c(/C=C/c4ccccc4)n[nH]c3c2)c1)c1ccccc1` [20(b), 6-(3-(Benzoylamido)-phenylsulfanyl)-3-styryl-1H-indazole], the inhibition at 1 µM was 28% in data set [4] (setting [6]) and 23% in data set [1] (setting [6]). The concentration for half-maximal inhibition (IC50) in data set [2] (setting [8]) was 8.2 nM.

Consider `O=C(Nc1cccc(Nc2ccc3c(/C=C/c4ccccc4)n[nH]c3c2)c1)c1ccccc1` [Example 13, N-[3-(3-Styryl-1H-indazol-6-ylamino)-phenyl)-benzamide], for which the figures for the inhibition at 1 µM in data set [4] and in data set [1] were 74% and 61%, respectively. Further, the 50% inhibitory concentration (IC50) in data set [2] (setting [7]) is 28 nM; in data set [2] (setting [8]), 3.9 nM.

For the compound `CNC(=O)c1ccccc1Nc1ccc2c(/C=C/c3ccccn3)n[nH]c2c1` [Example 39(a), 6-[2-(Methylcarbamoyl)phenylanzino]-3-E-[2-(pyridin-2-yl)ethenyl]-1H-indazole], the “% remain (HLM, 2 h)” value in data set [3] (human, microsomes, 2 h, 5 µM) is on record as 70%.

`O=CNc1ccccc1/C=C/c1n[nH]c2cc(C(=O)c3cccc(NC(=O)c4ccccc4)c3)ccc12` [Example 43, 6-(3-Benzamidobenzoyl)-3-E-[2-(2-formamidophenyl)ethenyl]-1H-indazole]: the “% remain (HLM, 2 h)” value in data set [3] (human, microsomes, 2 h, 5 µM) came to 2%.

For `O=C(c1cccc(NC(=O)c2cccc3[nH]ccc23)c1)c1ccc2c(/C=N/n3cccc3)n[nH]c2c1` [Example 45(a), 6-[3-(Indol-4-ylcarboxamido)benzoyl]-3-E-[N-(pyrrol-1-yl)iminomethyl]-1H-indazole], the “% remain (HLM, 2 h)” value in data set [3] (human, microsomes, 2 h, 5 µM) stood at 97%.

Turning to `C#CCNC(=O)c1ccccc1C(=O)c1ccc2c(/C=C/c3ccccn3)n[nH]c2c1` [Example 56], the inhibition at 0.05 µM in data set [5] was found to be 5%.

As for `C(=C\c1n[nH]c2cc(-c3cccnc3)ccc12)/c1ccccc1` [Reference Example 27(e), 6-pyridin-3-yl-3-E-styryl-1H-indazole], in data set [5], the inhibition at 1 µM is 34%.

`C(=C\c1n[nH]c2cc(-c3ccncc3)ccc12)/c1ccccc1` [Reference Example 27(f)]: the inhibition at 1 µM in data set [5] amounted to 49%.

In the case of `Oc1ccc(-c2ccc3c(/C=C/c4ccccc4)n[nH]c3c2)cn1` [Reference Example 28(c), 6-(2-hydroxypyridin-5-yl)-3-E-styryl-1H-indazole], in data set [5], the inhibition at 1 µM is 34%.

In the case of `O=C(Nc1cccc(Oc2ccc3c(/C=C/c4ccco4)n[nH]c3c2)c1)c1ccccc1` [Reference Example 30(c), 6-[3-benzamidophenoxy]-3-[2-(fur-2-yl)ethenyl]-1H-indazole], the figures for the inhibition at 1 µM in data set [4] (setting [6]) and in data set [1] (setting [6]) were 82% and 44%, respectively. Moreover, the concentration for half-maximal inhibition (IC50) in data set [2] (setting [7]) amounted to 21 nM; in data set [2] (setting [8]), 2.5 nM.

Consider `CCn1nc(C)cc1C(=O)Nc1cccc(Oc2ccc3c(/C=C/c4ccccc4)n[nH]c3c2)c1` [Reference Example 30(e), 6-[3-((1-Ethyl-3-methyl-1H-pyrazol-5-yl)carboxamido)phenoxy]-3-E-stryrylindazole], for which the inhibition at 1 µM in data set [4] (setting [6]) was determined as 92%; in data set [1] (setting [6]), 62%. Besides, in data set [2] (setting [7]), the 50% inhibitory concentration (IC50) is 29 nM.

For `O=C(NCc1cccc(F)c1)c1ccccc1Sc1ccc2c(/C=C/c3ccccn3)n[nH]c2c1` [Reference Example 35(ff)], the inhibition at 1 µM in data set [4] (setting [6]) came out at 75%; in data set [1] (setting [6]), 25%. Moreover, the IC50 in data set [2] (setting [7]) stood at 5.8 nM. The “% remain (HLM, 2 h)” value in data set [3] (setting [9]) is given as 31%.

Turning to `O=C(NNC(=O)c1ccccc1Sc1ccc2c(/C=C/c3ccccn3)n[nH]c2c1)c1cccs1` [Reference Example 35(m), 6-[2-((Thien-2-ylhydrazido)carbonyl)phenylsulfanyl]-3-E-[2-(pyridin-2-yl)ethenyl]-1H-indazole], the inhibition at 1 µM in data set [4] (setting [6]) stood at 82%; in data set [1] (setting [6]), 61%. Moreover, the IC50 in data set [2] (setting [7]) amounted to 35 nM.

With `CONC(=O)c1ccccc1Sc1ccc2c(/C=C/c3ccccn3)n[nH]c2c1` [Reference Example 35(r), 6-[2-(methoxycarbamoyl)phenylsulfanyl]-3-E-[2-(pyridin-2-yl)ethenyl]-1H-indazole], in data set [1] (setting [6]), the inhibition at 1 µM was 16%. Moreover, the IC50 in data set [2] (setting [7]) worked out at 2.3 nM; in data set [2] (setting [8]), 0.36 nM. Besides, the “% remain (HLM, 2 h)” value in data set [3] (setting [9]) is recorded as 51%.

`O=C(Nc1cccc(C(=O)c2ccc3c(/C=C/c4ccccn4)n[nH]c3c2)c1)c1ccncc1` [Reference Example 41(b), 6-[3-(pyridin-4-ylcarboxamido)benzoyl]-3-E-[2-(pyridin-2-yl)ethenyl]-1H-indazole]: the inhibition at 1 µM is 31% in data set [4] (setting [6]) and 24% in data set [1] (setting [6]). The half-maximal inhibitory concentration (IC50) in data set [2] (setting [7]) amounted to 9.8 nM; in data set [2] (setting [8]), 2 nM. Further, the remaining at 2 h, 5 µM in data set [3] (human liver microsomes, 5 µM test compound, 37 °C, 2 h, read-out: % remain (HLM, 2 h)) is 80%.

Regarding `CC(=O)c1ccc(C(=O)Nc2cccc(C(=O)c3ccc4c(/C=C/c5ccccn5)n[nH]c4c3)c2)s1` [Reference Example 41(e), 6-[3-((5-acetylthien-2-yl)carboxamido)benzoyl]-3-E-[2-(pyridin-2-yl)ethenyl]-1H-indazole], the inhibition at 1 µM stood at 31% in data set [4] (setting [6]) and 21% in data set [1] (setting [6]). Further, the IC50 was 5.6 nM in data set [2] (setting [7]); 0.15 nM in data set [2] (setting [8]); 6.1 nM in data set [2] (+ albumin, read-out: HUVEC + albumin IC50). Further, the “% remain (HLM, 2 h)” value in data set [3] (setting [9]) was 22%.

In the case of `COc1cc(C(=O)Nc2cccc(C(=O)c3ccc4c(/C=C/c5ccccn5)n[nH]c4c3)c2)cc(Cl)n1` [Reference Example 41(u), 6-[3-((2-chloro-6-methoxypyridin-4-yl)carboxamido)benzoyl]-3-E-[2-(pyridin-2-yl)ethenyl]-1H-indazole], the inhibition at 1 µM in data set [4] (setting [6]) amounted to 74%; in data set [1] (setting [6]), 54%. For the same compound, in data set [2] (setting [7]), the IC50 came out at 7.9 nM.
